Test results as given in patent publication EP0173480A2, “The antiviral use of phyllanthostatins” (priority 1984, dated 1986).
Values after ≈ are worked out from the molar mass of the structure shown. Where two headings read alike, the source gives them in different places.

Key:
HSV-1 = experiment: Cell culture antiviral activity, agar-well zones of cytotoxicity / plaque inhibition; conditions: 50 pg of test compound (so in the source)
PR-8 = conditions: 50 pg of test compound (so in the source)
coxsackie A21 = type: cell-based; conditions: ML cells
[1] = system: herpes simplex virus type 2 (HSV-2, MS); experiment: Inhibition of virus replication, virus yield by plaque method; type: cell-based; conditions: for HSV-2 virus yield: Vero cells
[2] = Drug toxicity in non-infected female mice treated intravaginally; type: in vivo; conditions: 1 mg/ml intravaginally 3 x daily x 5 days, compared with saline, zinc acetate groups, same gain by day 15
Experimental: Where indicated, non-infected mice (5 per group) were treated identically (3 times daily x 5) in order to determine drug toxicity. The groups of mice were weighed at the indicated times.
Non-infected female mice were treated intravaginally with the same drugs, at the same concentrations and with a schedule (3 x daily x 5 days). Animal weights were determined at the time of initiation of treatment (day 0), and again on day 4 (after 12 treatments were given), and again after treatments had been concluded on days 7, 11 and 15. The weights of the groups of mice treated with placebo or the high drug concentrations are shown on Table 3, and the differences in weights in Figure 4. […] Weight gains in mice treated with phyllanthoside (1 mg/ml) were slightly less than that of the above compounds, but by day 15, the mice had the same gain as those treated with phyllanthostatin I, saline or zinc acetate.

[3] = system: herpes simplex virus type 1 (HSV-1, McIntyre); experiment: Inhibition of virus replication, virus yield by plaque method; type: cell-based
HA-1 = experiment: Cell culture antiviral activity, agar-well zones of cytotoxicity / plaque inhibition; conditions: 50 pg of test compound (so in the source)
[4] = system: Herpes Simplex virus type 2 (HSV-2, strain 35D); experiment: Genital HSV-2 infection of female mice, virus titers in vaginal secretions; type: in vivo; conditions: for Mean virus titer in swabs of mice which shed virus / Nv/Nt, swabs with virus/total swabs: 8.0 x 10^4 PFU;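 as to Mean virus titer in swabs of mice which shed virus: titer expressed as log PFU per ml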
[5] = system: Herpes Simplex virus type 2 (HSV-2, strain 35D); experiment: Genital HSV-2 infection of female mice, intravaginal treatment, survival; type: in vivo; conditions: for mice survived (of 14): study of Table 3; for %S (percent survivors) / MDD (mean day of death): N 14
E.R. = conditions: 50 pg of test compound (so in the source)
Vacc. = conditions: 50 pg of test compound (so in the source)
Vero cells = experiment: Cytotoxicity of drugs, absorbance at 260 nm of lysed cell monolayers
[6] = as above; conditions: monkey, vero cells, drug concentration which reduces the OD260 of lysed cells by 50%
HSV-2 = experiment: Cell culture antiviral activity, agar-well zones of cytotoxicity / plaque inhibition; conditions: 50 pg of test compound (so in the source)
[7] = system: VSV (vesicular stomatitis virus); type: cell-based; conditions: Vero cells; higher drug concentrations (5 and 50 µg/ml) compared with 0.5
[8] = system: coxsackie B3 virus (Nancy Strain); experiment: Inhibition of virus replication, virus yield in Vero cells; type: cell-based
Coe = experiment: Cell culture antiviral activity, agar-well zones of cytotoxicity / plaque inhibition; conditions: 50 pg of test compound (so in the source)
[9] = higher drug concentrations (5 and 50 µg/ml) compared with 0.5
[10] = therapeutic index with ID50 Vero 72 hrs.
[11] = therapeutic index with ID50 Vero 91 hrs.
[12] = day 1 after HSV-2 inoc., 0.5 mg/ml
[13] = day 1 after HSV-2 inoc., 1 mg/ml
[14] = day 2 after HSV-2 inoc., 0.5 mg/ml
[15] = day 2 after HSV-2 inoc., 1 mg/ml
[16] = day 3 after HSV-2 inoc., 0.5 mg/ml
[17] = day 3 after HSV-2 inoc., 1 mg/ml
[18] = day 4 after HSV-2 inoc., 0.5 mg/ml
[19] = day 4 after HSV-2 inoc., 1 mg/ml
[20] = day 7 after HSV-2 inoc., 0.5 mg/ml
[21] = day 7 after HSV-2 inoc., 1 mg/ml
[22] = 8.0 x 10^3 PFU/0.1 ml, mg/ml cell empty (1 mg/ml in upper section)
[23] = 8.0 x 10^4 PFU/0.1 ml, 1 mg/ml intravaginally

Question: What does the source list for CC(=O)O[C@@H]1[C@@H](O)[C@H](O[C@H]2[C@H](OC(=O)[C@H]3CC[C@@H]4[C@H](C3)O[C@@]3(C[C@H](OC(=O)/C=C/c5ccccc5)[C@H](C)CO3)[C@]43CO3)O[C@H](C)[C@@H](O)[C@@H]2OC(C)=O)O[C@H](C)[C@H]1O [Phyllanthoside]?
Answer: zone of cytotoxicity (HSV-1; first figure of the cell): 4/4; zone of antiviral activity (viral plaque inhibition) (HSV-1; second figure of the cell): 4/4; zone of cytotoxicity (PR-8; first figure of the cell): 3/3; zone of antiviral activity (viral plaque inhibition) (PR-8; second figure of the cell): 3/3; coxsackie A21 virus yield (coxsackie A21; 5 µg/ml (below 5 µg per ml)): inhibitory for both viruses; coxsackie A21 virus yield (coxsackie A21; below 5 µg per ml (i.e., 0.5 or 1), study of b36): reduced titers of coxsackie A21; coxsackie A21 virus yield (coxsackie A21; [9]): further reductions in all virus yields; ED90 MS ([1]; HSV-2 in Vero cells, drug concentration reducing virus titers by 90%, 1440 min): 1.4958 µg per ml; EC90 ([1]; Human alphaherpesvirus 2, Vero, 24 h, read-out: ED90 MS): 1.5 µg/mL (≈ 1.86 µM); HSV-2 virus yield ([1]; 0.5 µg/ml): most susceptible virus to inhibition; HSV-2 virus yield [1, 9]: further reductions in all virus yields; T - ID50/ED90, MS [1, 10]: 0.7989; T - ID50/ED90, MS [1, 11]: 2.3854; weight gains [2]: slightly less; HSV-1 virus yield ([3]; Vero cells, higher drug concentrations (5 and 50 µg/ml) compared with 0.5): further reductions in all virus yields; T - ID50/ED90, McIntyre [3, 10]: 0.6402; T - ID50/ED90, McIntyre [3, 11]: 1.9115; zone of cytotoxicity (HA-1; first figure of the cell): 4; zone of antiviral activity (viral plaque inhibition) (HA-1; second figure of the cell): 0; mean titer less than placebo treated groups ([4]; 0.5 mg/ml, after the first 3 days): about 0.6 logs; mean titer less than placebo treated groups ([4]; 0.5 mg/ml, first 3 days): about 1 log; mean titer less than saline or DMSO-saline treated groups ([4]; 1 mg/ml, day 4): about 0.6 logs; mean titer less than saline or DMSO-saline treated groups ([4]; 1 mg/ml, days 1, 2 and 3): about one; Mean virus titer in swabs of mice which shed virus [4, 12]: 2.46 log PFU/ml; Nv/Nt, swabs with virus/total swabs [4, 12]: 5/10; Nv/Nt, swabs with virus/total swabs ([4]; day 1 after HSV-2 inoc., 0.5 mg/ml, listed as phyllanthoside): 5; Mean virus titer in swabs of mice which shed virus [4, 13]: 2.83 log PFU/ml; Nv/Nt, swabs with virus/total swabs [4, 13]: 2/10; Nv/Nt, swabs with virus/total swabs ([4]; day 1 after HSV-2 inoc., 1 mg/ml, listed as phyllanthoside): 2; Mean virus titer in swabs of mice which shed virus [4, 14]: 3.45 log PFU/ml; Nv/Nt, swabs with virus/total swabs [4, 14]: 7/10; Mean virus titer in swabs of mice which shed virus [4, 15]: 2.98 log PFU/ml; Nv/Nt, swabs with virus/total swabs [4, 15]: 3/10; Nv/Nt, swabs with virus/total swabs ([4]; day 2 after HSV-2 inoc., 1 mg/ml, listed as phyllanthoside): 3; Mean virus titer in swabs of mice which shed virus [4, 16]: 3.41 log PFU/ml; Nv/Nt, swabs with virus/total swabs [4, 16]: 8/10; Mean virus titer in swabs of mice which shed virus [4, 17]: 3.11 log PFU/ml; Nv/Nt, swabs with virus/total swabs [4, 17]: 5/10; Nv/Nt, swabs with virus/total swabs ([4]; day 3 after HSV-2 inoc., 1 mg/ml, listed as phyllanthoside): 5; Mean virus titer in swabs of mice which shed virus [4, 18]: 3.73 log PFU/ml; Nv/Nt, swabs with virus/total swabs [4, 18]: 8/10; Mean virus titer in swabs of mice which shed virus [4, 19]: 3.72 log PFU/ml; Nv/Nt, swabs with virus/total swabs [4, 19]: 4/10; Nv/Nt, swabs with virus/total swabs ([4]; day 4 after HSV-2 inoc., 1 mg/ml, listed as phyllanthoside): 4; Mean virus titer in swabs of mice which shed virus [4, 20]: 3.98 log PFU/ml; Nv/Nt, swabs with virus/total swabs [4, 20]: 2/4; Mean virus titer in swabs of mice which shed virus [4, 21]: 2.94 log PFU/ml; Nv/Nt, swabs with virus/total swabs [4, 21]: 3/8; mice survived (of 14) ([5]; 8.0 x 10^3 PFU in 0.1 ml): 13; %S (percent survivors) [5, 22]: 93%; MDD (mean day of death) [5, 22]: 14.0 days; mice survived (of 14) ([5]; 8.0 x 10^4 PFU in 0.1 ml): 9; %S (percent survivors) [5, 23]: 64%; MDD (mean day of death) [5, 23]: 9.0 days; protection of mice from lethal genital HSV-2 infection, summary in words ([5]; intravaginally from one hour after inoculation, 3 times daily): most effective of the compounds; mice survived ([5]; second study, 8.0 x 10^4 PFU in 0.1 ml, 0.5 mg/ml): 1; mice protected from death (of 10) ([5]; second study, 8.0 x 10^4 PFU in 0.1 ml, 1 mg/ml): 7; zone of cytotoxicity (E.R.; first figure of the cell): 2 (2 - 20-30 mm); zone of antiviral activity (viral plaque inhibition) (E.R.; second figure of the cell): 4; zone of cytotoxicity (Vacc.; first figure of the cell): 4/4; zone of antiviral activity (viral plaque inhibition) (Vacc.; second figure of the cell): 4/4; OD260 of lysed cells (Vero cells; Vero cells, 0.5 µg per ml, greatly increased OD260 after 72 hours): decreased the OD260 during 72 hours; cell growth (OD260 of lysed cells) (Vero cells; Vero cells, 1 µg per ml, OD260 increased dramatically at 96 hours): cell growth was suppressed to a greater extent during the first 72 hours; ID50 Vero 91 hrs. (Vero cells; drug concentration which reduces the OD260 of lysed cells by 50%, table head 91 hrs., b38 96 hours, 5460 min): 3.568 ug per ml; CC50 at 72 h ([6]; ID50 Vero 72 hrs., 72 hours): 1200 µg/mL (≈ 1480 µM); CC50 at 91 h ([6]; ID50 Vero 91 hrs., table head 91 hrs., b38 96 hours): 3.57 µg/mL (≈ 4.44 µM); zone of cytotoxicity (HSV-2; first figure of the cell): 3; zone of antiviral activity (viral plaque inhibition) (HSV-2; second figure of the cell): 4; VSV virus yield [7]: further reductions in all virus yields; coxsackie B3 virus yield ([8]; 5 µg per ml): inhibitory for both viruses; coxsackie B3 virus yield ([8]; below 5 µg per ml (i.e., 0.5 or 1)): unaffected; zone of cytotoxicity (Coe; first figure of the cell): 3; zone of antiviral activity (viral plaque inhibition) (Coe; second figure of the cell): 0
